# Experimental data taken from paper PMC7504735, “Enhanced Antigiardial Effect of Omeprazole Analog Benzimidazole Compounds” (Molecules, 2020).
# Read-outs that look alike come from different tables or passages of the source.
# Assays:
# [1] = molecular target: T1, triosephosphate isomerase (TPI) (Giardia intestinalis, UniProt P36186); set-up: method as in PMID 28798383; conditions: previously reported; cited from earlier work
# T1 construct: His-tag (TEV-cleavable) (cleaved yes); made in house
# [2] = system: Giardia lamblia trophozoites; set-up: method as in PMID 28798383; conditions: previously reported; cited from earlier work
# [3] = molecular target: T1, triosephosphate isomerase (TPI); conditions: cited from earlier work
# [4] = system: Giardia lamblia trophozoites; test: Antigiardial activity on G. lamblia trophozoites, trypan blue dye exclusion; assay type: cell-based; conditions: Giardia duodenalis, 48 h at 37 °C, pH 7.4, trypan blue
# Experimental: Giardia lamblia WB strain (ATCC number 30957) was grown in a modified TYI-S-33 medium supplemented with 10% fetal bovine serum. The parasite was cultivated in 15 mL screw-capped borosilicate glass tubes containing 13 mL medium. The tubes were incubated on a 15° horizontal slant at 37 °C. Giardia was harvested from confluent culture by chilling the tubes on ice for 5‒10 min to detach cells, followed by centrifugation at 800× g for 5 min.
# The antigiardial activity of the prepared compounds was tested as described. One milligram of a test compound was dissolved in 10 L of DMSO and topped up with 1 mL growth medium. The solution was filter-sterilized using 0.22-m syringe filters and the appropriate volumes of the solutions were taken to prepare the concentration of each compound in 1.5 mL microtubes. For each preparation, concentrations of 500, 250, 125, 62, and 31 µg/mL were prepared in a final volume of 1.5 mL. Each tube was inoculated with 5 × 10^4 trophozoites of G. lamblia and then incubated for 48 h at 37 °C. After incubation, 75 L of the treated trophozoites were subcultured individually for another 48 h in a fresh medium free of compounds. At the end of this period, the viable trophozoites were counted. Each compound was assayed in duplicate in three independent experiments. In each assay, appropriate controls were also tested, including a sample without compound and another with DMSO.
# The parasites in each tube were counted using a standard hemocytometer at 10× objective. In each count, trypan blue was employed to distinguish live parasites from dead ones. To permit detachment of Giardia, the tubes were placed on ice for 10 min and the parasites were then centrifuged at 800× g for 10 min. The supernatant was discarded and 1 mL fresh medium was added to each tube. The final suspension was prepared by mixing 25 μL of the parasite suspension in each tube with 100 μL of 0.4% trypan blue in phosphate-buffered saline (PBS). The 50% inhibitory concentration (IC50) was employed as a parameter for biological activity. The IC50 is the concentration of compounds that cuts the number of parasites to half that in the negative control (growth medium + DMSO + parasites). Lastly, the 50% inhibitory concentration (IC50) was calculated.
# [5] = molecular target: T1, triosephosphate isomerase (TPI); test: Inactivation of recombinant TPI enzyme with compounds; assay type: biochemical
# Experimental: The TPI from G. lamblia was expressed and purified. […] When the culture reached A600 = 0.8, it was induced using 0.4 mM IPTG and incubated overnight at 30 °C with shaking at 180 rpm. After the bacteria were collected by centrifugation (10,000× g, 15 min) and suspended in 40 mL of lysis buffer, pH 8.0 (50 mM Tris, 50 mM NaCl, 5 mM β-mercaptoethanol, and 1 mM phenylmethylsulfonyl fluoride). The bacterial suspension was disrupted by sonication and centrifuged at 9000× g for 1 h at 4 °C. Protein purification was performed by immobilized metal affinity chromatography (IMAC) using a Profinity Ni^2+ charged resin (Bio-Rad) previously reported by Enriquez-Flores et al.. The His-tag sequence was removed from the TIM by incubation with TEVP at a molar ratio of 30:1 (TPI/TEVP) at room temperature for 17 h in digestion buffer, pH 8.0 (50 mM Tris, 0.5 mM ethylene diamine tetraacetic acid (EDTA), and 1 mM dithiothreitol). The enzyme concentration was spectrophotometrically determined at 280 nm, and the enzyme was used immediately.
# Enzyme activity of TPI was determined spectrophotometrically as described by monitoring the conversion of glyceraldehyde-3-phosphate (GAP) to dihydroxyacetone phosphate (DHAP). […] The standard reaction mixture contained 1 mM GAP, 0.2 mM NADH, and 0.9 units/mL of α-GDH in TE buffer (100 mM triethanolamine, 10 mM EDTA, pH 7.4). The reaction was initiated by adding 5 ng/mL of TPI to the reaction mixture.
# To determine the inactivation of the TPI enzyme from G. lamblia, we performed inactivation assays of the enzyme in the presence of the synthesized compounds. The compounds’ stock solutions were freshly prepared using 100% dimethyl sulfoxide (DMSO) as the solvent at 25 mM. […] After the incubation period, the enzymatic activity was measured by withdrawing an aliquot of each experimental condition, as described above. The results were expressed in terms of the percentage of activity versus the compound’s concentration.
# VERO cells = system: VERO cells; set-up: method as in PMID 28798383; conditions: cited from earlier work
# [6] = molecular target: T1, triosephosphate isomerase (TPI); set-up: method as in PMID 28798383; conditions: BHO2 comparison; cited from earlier work
# T1 sequence (P36186 whole entry): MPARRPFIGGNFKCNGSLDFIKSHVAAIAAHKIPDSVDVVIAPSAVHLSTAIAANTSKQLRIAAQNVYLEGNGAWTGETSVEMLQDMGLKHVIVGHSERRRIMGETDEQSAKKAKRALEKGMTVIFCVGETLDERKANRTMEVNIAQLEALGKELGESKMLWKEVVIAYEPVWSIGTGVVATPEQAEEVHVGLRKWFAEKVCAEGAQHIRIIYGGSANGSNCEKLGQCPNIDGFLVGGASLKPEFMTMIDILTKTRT
SMILES,IC50 [1],IC50 [2],Second-order inactivation constant k2 ([3]; previously reported),also measured
COc1ccc2[nH]c([S+]([O-])Cc3ncc(C)c(OC)c3C)nc2c1 (stereo not drawn) [Omeprazole],225 µM,300 µM,0.78 M⁻¹ s⁻¹,
[O-][S+](Cc1ccccn1)c1nc2ccccc2[nH]1 (stereo not drawn) [H-BZM1],,,,"IC50 [4]: 676 µM; IC50 [5]: > 500 µM; Loss (reduction) of TPI enzyme activity ([5]; 500 µM compound, 2 h at 37 °C): 25%"
COCCCOc1ccnc(C[S+]([O-])c2nc3ccccc3[nH]2)c1C (stereo not drawn) [rabeprazole],,,,Second-order inactivation constant k2 ([3]; reported by García-Torres et al.): 2.66 M⁻¹ s⁻¹
COc1c(C)cnc(C[S+]([O-])c2nc3ccc(C)cc3[nH]2)c1C (stereo not drawn) [BHO2],64 µM,120 µM,1.6 M⁻¹ s⁻¹,CC50 for mammal cells (VERO) (VERO cells): millimolar ranges; Loss of intrinsic fluorescence signal of TPI [6]: 25%
